The text below walks through data of US9844226B2 (AJINOMOTO CO., INC., priority 2009, dated 2017).

This experiment concerns the target T1, human CaSR (Homo sapiens, UniProt P41180, E1011Q).
T1 construct: expressed in transfected cells; host or cells: 293E cells (EBNA1-expressing HEK293 cells, ATCC No. CRL-10852), transient transfection with Fugene6
T1 sequence (P41180 20-1078 E1011Q): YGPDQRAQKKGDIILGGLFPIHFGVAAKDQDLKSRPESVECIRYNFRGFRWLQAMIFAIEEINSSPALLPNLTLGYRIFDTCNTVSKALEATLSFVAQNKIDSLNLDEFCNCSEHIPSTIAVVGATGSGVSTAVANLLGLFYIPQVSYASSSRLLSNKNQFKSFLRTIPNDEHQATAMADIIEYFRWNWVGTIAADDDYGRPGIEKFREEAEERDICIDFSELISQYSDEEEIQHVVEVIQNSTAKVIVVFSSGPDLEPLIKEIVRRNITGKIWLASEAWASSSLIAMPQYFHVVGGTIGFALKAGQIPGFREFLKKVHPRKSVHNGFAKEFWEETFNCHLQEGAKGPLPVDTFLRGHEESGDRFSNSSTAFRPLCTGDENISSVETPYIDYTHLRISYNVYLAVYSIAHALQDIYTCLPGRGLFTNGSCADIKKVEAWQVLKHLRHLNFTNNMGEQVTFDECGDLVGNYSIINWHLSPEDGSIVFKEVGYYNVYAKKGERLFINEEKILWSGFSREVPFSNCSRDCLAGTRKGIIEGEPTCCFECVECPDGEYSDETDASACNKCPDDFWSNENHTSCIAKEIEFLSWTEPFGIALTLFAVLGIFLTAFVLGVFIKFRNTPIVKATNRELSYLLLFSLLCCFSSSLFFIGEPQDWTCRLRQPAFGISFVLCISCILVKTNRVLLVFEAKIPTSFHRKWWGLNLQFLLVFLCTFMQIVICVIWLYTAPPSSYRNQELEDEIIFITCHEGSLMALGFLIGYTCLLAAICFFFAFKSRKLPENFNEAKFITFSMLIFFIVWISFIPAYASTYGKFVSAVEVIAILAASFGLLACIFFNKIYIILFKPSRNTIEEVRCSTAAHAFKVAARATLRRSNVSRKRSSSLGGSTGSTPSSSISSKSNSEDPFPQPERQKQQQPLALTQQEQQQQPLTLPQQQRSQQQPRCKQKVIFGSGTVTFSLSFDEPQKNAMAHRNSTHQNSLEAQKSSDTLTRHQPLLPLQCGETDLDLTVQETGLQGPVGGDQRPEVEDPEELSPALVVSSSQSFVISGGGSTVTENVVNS
The experiment is described as follows: Evaluation of CaSR agonist activity (Ca2+ fluorescence, EC50). Format: cell-based. To be noted: comparison with other dipeptides.

Structures are written as SMILES.

Procedure: The cells were seeded into a F25 flask at 3×10^6 cells/10 mL, and allowed to stand in a CO2 incubator (5% CO2, 37° C.) for 24 hours. Then, the cells were transfected with the human CaSR-expression plasmid hCaSR/pcDNA3.1 by using a transfection reagent Fugene6 (available from Roche Company). The cells were placed in a CO2 incubator for 6 to 7 hours, and then the cells were harvested by using DMEM/Ham's-F12 containing 10% fetal calf serum. Then, the cells were seeded into a poly-D-lysine-coated 96-well plate (BD-Biocoat) at 70,000 cells/well.
The plate was allowed to stand over 24 hours in a CO2 incubator, and then the culture medium was removed from the 96-well plate into which the cells were seeded. […] Then, the indicator was incorporated into the cells by allowing the plate to stand at 37° C. for one hour, and then at room temperature for 10 minutes.
Method for the Determination of EC50:
The differences between the maximum value and minimum value of the fluorescent intensity (RFU (Max-Min)) were determined by automatic calculation of FLEX Station before and after the addition of the compound. The percentage of activities was calculated, with the RFU (Max-Min) at the time when the maximum concentration of the compound added was defined to be 100%, and the RFU (Max-Min) at the time when the 0.1% BSA-containing assay buffer containing no test compound was defined to be 0%.

On to `CC[C@H](NC(=O)CC[C@H](N)C(=O)O)C(=O)O`, for which the “CaSR effect and activity (in words)” value was “strong CaSR effect and activity comparable to that of γ-Glu-Cys”.
